{"source": "patent US20220023269A1", "about": "“Methods Of Treating Diabetes In Severe Insulin-Resistant Diabetic Subjects” (Balticgruppen Bio AB, priority 2018, published 2022)", "key": {"[1]": {"tested_on": "hIAPPtg mice", "experiment": "Diet switch in hIAPPtg mice: HFD 9 w then test material-HFD (0.8 mg/g) 7 w", "format": "in vivo", "protocol": "Food intake was measured weekly by giving each cage 200 g pellet. After one week, the amount of pellets consumed were calculated and adjusted according to the number of animals/cage. Body weight was measured weekly. Body composition was assessed using EchoMRI.\nThe potent effect of the test material on established diabetes and obesity in hIAPPtg mice on HFD formulated with 2 mg/g test material leaves open the possibility that the beneficial metabolic effects (FIG. 4, F-H) observed in these mice are secondary to the effects on weight and body fat. To address this issue, we therefore performed diet switch experiments on hIAPPtg mice using a lower test material-HFD concentration, where mice were fed HFD for 9 w and then either continued on HFD or switched to test material-HFD (0.8 mg/g) for 7 w."}, "[2]": {"tested_on": "primary human hepatocytes", "experiment": "[1,2-14C] acetate incorporation into total lipids", "format": "cell-based", "details": "0.625, 1.25, 2.5 or 5 μM", "protocol": "Primary human hepatocytes (65,000-130,000 cells/well in 24-well dishes) were treated with vehicle control, 0.625, 1.25, 2.5 or 5 μM test material in serum free Williams' medium E, 2 hours, before addition of 0.25 μCi [1,2-^14C]-acetate/well for an additional 4 hours. 200 μl 0.5% trypsin was used to detach the cells before addition of 800 μl chloroform/methanol (2:1) and 500 μl 4 mM MgCl2. The samples were vortexed and spun at 14,000 rpm, 2 minutes before discarding the aqueous layer. The procedure was repeated twice, first with 700 μl chloroform/methanol (2:1) and 500 μl 4 mM MgCl2 and then 400 μl chloroform/methanol (2:1) and 500 μl 4 mM MgCl2. The organic phase was transferred into a scintillation vial and evaporated to dryness by a stream of nitrogen. The residue was dissolved in 3 ml liquid scintillation cocktail (Optiphase HiSafe 3, Perkin Elmer #1200.437) and 14 C determined for 1 minute in a Wallac 1414 beta counter (Perkin Elmer). Before lipid extraction, 10 μl samples were used to determine protein concentration. 14 C-values were normalised to cellular protein concentration."}, "[3]": {"target": "T1, PP2Ca (Homo sapiens, UniProt P35813)", "T1 construct": "purchased Abcam ab51205", "T1 sequence (P35813 whole entry)": "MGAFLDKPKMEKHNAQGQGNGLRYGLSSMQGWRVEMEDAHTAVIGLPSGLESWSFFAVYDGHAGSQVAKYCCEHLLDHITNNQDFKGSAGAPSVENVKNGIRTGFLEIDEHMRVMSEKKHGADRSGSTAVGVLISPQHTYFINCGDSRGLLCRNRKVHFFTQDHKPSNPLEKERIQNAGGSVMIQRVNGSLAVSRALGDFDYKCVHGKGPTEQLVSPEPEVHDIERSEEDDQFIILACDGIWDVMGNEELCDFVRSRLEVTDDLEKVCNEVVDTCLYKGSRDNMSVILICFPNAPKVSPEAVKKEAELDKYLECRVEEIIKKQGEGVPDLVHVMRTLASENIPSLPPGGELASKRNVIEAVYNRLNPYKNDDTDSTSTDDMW", "experiment": "PP2C phosphatase activity assay", "format": "biochemical", "details": "5, 10 or 20 μM", "protocol": "3 ng/μl PP2Ca (Abcam ab51205) and 5, 10 or 20 μM test material in buffer (50 mM Tris-HCL pH 7.5, 0.1 mM EDTA, 0.5 mM DTT, 5 mM MgCl2) was used in the Sensolyte FDP protein phosphatase assay kit (Anaspec #71100) according to the manufacturer's instructions to measure the activity of PP2Ca. The fluorescence intensity was measured in a Bio Tek Synergy H4 multi-mode microplate reader."}, "[4]": {"tested_on": "CBA mice on HFD (DIO mice)", "experiment": "CBA mice on test material-HFD (0.4, 0.8, 2 mg/g) for 7 w", "format": "in vivo", "protocol": "12 weeks old CBA mice were randomised into a HFD and three test material-HFD groups (0.4 mg/g, 0.8 mg/g, and 2 mg/g) for 7 weeks. 16-17 weeks old CBA mice on regular diet was used as controls where indicated.\nAnimals were housed at 12:12 hour light/dark cycle in a temperature/humidity controlled (22° C./50% humidity) room and ad libitum feeding with either standard chow (Special Diet Service #801730), high fat diet (HFD) (Research diets, Inc. #D12492) or HFD (Research diets, Inc. #D12492) custom formulated with test material at 2 mg/g test material, 0.8 mg/g test material and 0.4 mg/g test material, respectively.\nAll cell lines were lysed in 0.1 M Tris-HCl, pH 6.8, 2% SDS, 10 mM sodium fluoride (SIGMA #S7920), 10 mM β-glycerophosphate (SIGMA #G6376), and 1 mM sodium vanadate (SIGMA #72060) and supernatant collected after 1 minute at 14,000 rpm. Islets (human and mouse) were lysed in 0.1 M Tris-HCl, pH 6.8, 2% SDS, protease inhibitor (Roche #04 693 124 001) and phosphatase inhibitor (Roche #04 906 837 001). Right calf muscle, heart, iWAT, and interscapular BAT was crushed in a pestle using liquid nitrogen and homogenised in ice cold RIPA buffer (150 mM sodium chloride (SIGMA #S7653), 1.0% NP40 (USB), 0.5% sodium deoxycholate (SIGMA #D6750), 0.1% SDS, 50 mM Tris pH 8.0, 20 mM sodium pyrophosphate (SIGMA #71515), 10 mM sodium fluoride, 10 mM β-glycerolphosphate, 1 mM sodium vanadate and protease inhibitor cocktail (Roche #04693124001), 1 tablet/10 ml lysis buffer). The supernatant was collected after 2 min at 14,000 rpm. This procedure was repeated until all fat was eliminated and the supernatant was clear, at 4° C. Samples were analysed on 4-15% polyacrylamide gels. Values were normalised toward AMPKα, β-Actin, GAPDH or the respective non-phosphorylated counterpart. […]"}, "[5]": {"tested_on": "conscious beagle dogs", "experiment": "Cardiovascular safety pharmacology study using radiotelemetry in conscious beagle dogs", "format": "in vivo", "details": "single oral doses 60, 180, 540 mg/kg", "protocol": "Telemetry analyses was performed by CiToxLAB North America (Laval, Quebec, Canada) in adult male beagle dogs, selected from CiToxLAB North America Dog Telemetry Colony, which had previously undergone surgery for telemetry transmitter implantation to monitor the arterial blood pressure, electrocardiogram, body temperature and locomotor activity (Data Science International, Model D70-PCT). All surgical procedures were performed in accordance with relevant Standard Operating Procedures. A telemetry transmitter was placed between the internal abdominal oblique muscle and the aponeurosis of the transverses abdominis of each animal. The pressure catheter was inserted into the femoral artery and the biopotential leads subcutaneously in a Lead II configuration. Test material was gavaged as a suspension at 60, 180, or 540 mg/kg."}, "[6]": {"details": "0.4, 0.8 and 2 mg/g in HFD, 6 w"}}, "data": [{"smiles": "O=C(Nc1nc(=O)n(Cc2ccc(Cl)cc2)s1)c1ccc(Cl)cc1", "note": "[test material, 4-chloro-N-[2-[(4-chlorophenyl)methyl]-3-oxo-1,2,4-thiadiazol-5-yl]benzamide]", "values": [{"measurement": "body fat", "setting": "[1]; 0.8 mg/g for 7 w", "result": "did not provoke body weight or body fat loss"}, {"measurement": "body weight", "setting": "[1]; 0.8 mg/g for 7 w", "result": "did not provoke body weight or body fat loss"}, {"measurement": "HOMA-IR", "setting": "[1]; 0.8 mg/g, 6 w after the switch", "result": "significantly reduced"}, {"measurement": "glucose levels", "setting": "[1]; 0.8 mg/g, 6 w after the switch", "result": "significantly reduced"}, {"measurement": "insulin levels", "setting": "[1]; 0.8 mg/g, 6 w after the switch", "result": "significantly reduced"}, {"measurement": "lipid synthesis", "setting": "[2]", "result": "dose-dependently suppressed lipid synthesis"}, {"measurement": "activity of PP2C", "setting": "[3]", "result": "without inhibiting the activity of PP2C"}, {"measurement": "expression of Cd36 and Cpt1b in BAT", "setting": "[4]; 2 mg/g in HFD", "result": "significantly increased the expression of Cd36"}, {"measurement": "expression of Fas, Scd1 and Acc1 in BAT", "setting": "[4]; 2 mg/g in HFD", "result": "potently reduced the expression"}, {"measurement": "weights of BAT pads", "setting": "[4]; 2 mg/g in HFD, vs HFD", "result": "reduced"}, {"measurement": "weights of iWAT and eWAT fat pads", "setting": "[4]; 2 mg/g in HFD, vs HFD", "result": "markedly lower weights"}, {"measurement": "dysglycemia (fasted blood glucose)", "setting": "[4]; [6]", "result": "potently prevented"}, {"measurement": "hyperinsulinemia (fasted insulin)", "setting": "[4]; [6]", "result": "potently prevented"}, {"measurement": "insulin resistance (HOMA-IR)", "setting": "[4]; [6]", "result": "potently prevented"}, {"measurement": "pAMPK in calf muscle", "setting": "[4]; 0.4, 0.8 and 2 mg/g in HFD, 7 w", "result": "dose-dependently increased pAMPK"}, {"measurement": "heart glycogen content", "setting": "[4]; 0.8 or 2 mg/g in HFD, 7 w", "result": "reduced in a dose-dependent manner"}, {"measurement": "heart weight/tibia length", "setting": "[4]; 0.8 or 2 mg/g in HFD, 7 w", "result": "did not cause an increase in heart weight/tibia length"}, {"measurement": "pAMPK levels in the heart", "setting": "[4]; 0.8 or 2 mg/g in HFD, 7 w", "result": "significantly increased pAMPK levels in the heart"}, {"measurement": "Cpt1b mRNA levels in liver", "setting": "[4]; DIO mice", "result": "dose-dependently increased Cpt1b"}, {"measurement": "hepatic steatosis", "setting": "[4]; DIO mice", "result": "prevented and reduced hepatic steatosis"}, {"measurement": "Acc2, Fas and Scd1 mRNA levels in liver", "setting": "[4]; DIO mice, dose-dependent", "result": "decreased Acc2, Fas, and Scd1 mRNA levels"}, {"measurement": "UCP1 expression in BAT and iWAT", "setting": "[4]; slightly, dose-dependent", "result": "reduced UCP1 expression"}, {"measurement": "Atgl mRNA levels in iWAT", "setting": "[4]; test material-HFD 7 w", "result": "increased both p-S406 ATGL levels and Atgl mRNA levels"}, {"measurement": "p-S406 ATGL levels in iWAT", "setting": "[4]; test material-HFD 7 w", "result": "increased both p-S406 ATGL levels and Atgl mRNA levels"}, {"measurement": "blood pressure (systolic and diastolic)", "setting": "[5]", "result": "acutely reduced blood pressure"}]}]}
